Results from US10761087B2, “Choroidal neovascularization suppressor or drusen formation suppressor, and method for assessing or screening for same” (Link Genomics, Inc., priority 2015, dated 2020).

Experiments:
[1] = test system: mouse; experiment: In vivo model test for drusen suppression (TNF-a induced drusen-like structure in retinal region); details: oral, 14 days; oxaprozin 600 mg/kg/day, epalrestat 600 mg/kg/day, zaltoprofen 40 mg/kg/day
Description: In the vicinity of the retina in the posterior segment of eyeball of mouse, 400 ng of Recombinant Mouse TNF-a (R&D Systems, # 410-MT) was administered. After two weeks from administration, an eye ball was extracted, and a formalin-fixed, paraffin-embedded block was prepared. The tissue sample was deparaffinized by treating three times with xylene for 5 minutes each, twice with 100% ethanol for 1 minute each, with 90% ethanol for 1 minute, with 80% ethanol for 1 minute, with 70% ethanol for 1 minute, and with water for 5 minutes. Staining was conducted with a Mayer' s hematoxylin solution for 4 minutes, and with an eosin liquid for 1 minute. After treating for 5 minutes in flowing water, treatments were conducted with 70% ethanol for 1 minute, with 80% ethanol for 1 minute, with 90% ethanol for 1 minute, twice with 100% ethanol for 1 minute each, and three times with xylene for 5 minutes each, followed by mounting with Marinol. After drying for 15 minutes or more at room temperature, the untreated RPE cells, and the RPE cells in which inflammation is induced were observed. An eyeball tissue segment was prepared from a block. After incubation for 30 minutes in a gas-phase incubator at 56° C., the tissue sample was deparaffinized by treating three times with xylene for 5 minutes each, twice with 100% ethanol for 1 minute each, with 90% ethanol for 1 minute, with 80% ethanol for 1 minute, with 70% ethanol for 1 minute, and with water for 5 minutes. After removing a melanin pigment in tissues using Delicate Melanin Bleach Kit for Special Stains and IHC (Polysciences, # 24909-1) according to the manufacturer's protocol, a microwave treatment using a citrate buffer pH 6.0 was conducted for 10 minutes to activate the antigen. After standing still for 30 minutes at room temperature, treatments were conducted with PBS for 5 minutes, with a 3% hydrogen peroxide/PBS solution for 5 minutes, and with PBS for 5 minutes to inactivate an endogenous peroxidase. The sample was stood still in a 3% BSA/PBS solution for 30 minutes at room temperature to block the tissues. As primary antibodies, an anti-E-Cadherin antibody (BD Biosciences, # 610182) that was 500-fold diluted with a 1.5% BSA/PBS solution, and an anti-Cytokeratin antibody (Sigma, # C2931) that was 1000-fold diluted, and an anti-Fibronectin antibody (abcam, # 45688) that was 1000-fold diluted, and an anti-Vimentin antibody (Cell signaling Technology, # 5741) that was 100-fold diluted were added in an amount of 200 μL per one tissue, and caused to react with the tissues for 17 hours at 4° C. The tissues reacted with the primary antibodies were washed three times with PBS for 5 minutes each, then caused to react with a secondary antibody (a Mouse on Mouse (M. O. M.) Elite Peroxidase Kit (Vector Laboratories, # PK-2200) for the anti-E-Cadherin antibody and the anti-Cytokeratin antibody, and a VECTASTAIN Elite ABC Rabbit IgG Kit (Vector Laboratories, # PK-6101) for the anti-Fibronectin antibody and the anti-Vimentin antibody) for 30 minutes at room temperature, then washed three times with PBS for 5 minutes each, and then subjected to an ABC reaction for 30 minutes at room temperature according to the manufacturer's protocol. After washing the tissues three times with PBS for 5 minutes each, color development was caused for 3 minutes at room temperature using an ImmPACT AMEC Red Peroxidase (HRP) Substrate (Vector Laboratories, # SK-4285). The color-developed tissues were stained by using a New hematoxylin Type M (MUTO PURE CHEMICALS CO., LTD., # 30141), and then stood still in flowing water for 3 minutes, and treated with 70% ethanol for 1 minute, with 80% ethanol for 1 minute, with 90% ethanol for 1 minute, twice with 100% ethanol for 1 minute each, and three times with xylene for 5 minutes each, and mounted with the use of Marinol. After drying for 15 minutes or more at room temperature, observation was conducted. […]

[2] = test system: VEGF; experiment: Change in expression of VEGF mRNA (real-time PCR) in EMT-induced RPE cells; assay type: cell-based, human; details: EMT-induced ARPE-19, 48 hours, compound at Cmax, ½ of Cmax or ¼ of Cmax
Description: RPE cells (ARPE-19) were seeded on a plate, and incubated for 5 days at 37° C. […] Each compound was added in a concentration of Cmax, ½ of Cmax or ¼ of Cmax. As a control, a sample to which a compound to be assessed (test drug) is not added was used. The collected cells were washed with PBS, and 350 μL of an RLT buffer was added to prepare a lysate for RNA extraction. Total RNA was extracted from the lysate using an RNeasy Micro kit (QIAGEN, #74004), and from 2 μg of the obtained RNA, cDNA was prepared using a SuperScript III First-Strand Synthesis SuperMix for qRT-PCR (Invitrogen, #11752-250). Using 50 ng of the obtained cDNA as a template, a real-time PCR (ABI Prism 7500 Sequence Detection System) was conducted according to the manufacturer's protocol, and expression of mRNA of each gene was quantified. Specific primers for respective genes were purchased from Invitrogen. Ct (Threshold Cycle) value of each gene was calculated as a percentage to a non-treated sample after normalization by endogenous control. For each result, a significant test (Student t test) was conducted, and when p<0.05, the result was marked with “*”, and when p<0.01, the result was marked with “**”.
The results are shown in FIG. 16 or FIG. 17, respectively.
The VEGF suppressive effect was assessed using the cell model as described above in the same manner as in Test example 2-3. The results are shown in FIG. 18 to FIG. 20, respectively.

Structure (SMILES)	Formation of a drusen-like structure (HE staining) [1]	Immunostaining of E-Cadherin in retinal epithelial cells [1]	Immunostaining of Fibronectin [1]	Shape of retinal pigment epithelial cells [1]	Enhancement of VEGF mRNA expression by EMT induction [2]	Enhancement of VEGF mRNA expression by EMT induction ([2]; listed as oxaprozin)	Enhancement of VEGF mRNA expression by EMT induction ([2]; listed as zaltoprofen)
O=C(O)CCc1nc(-c2ccccc2)c(-c2ccccc2)o1 [Oxaprozin, oxaprozin]	apparently suppressed	strongly positive staining was observed between cells	the signal strength of staining was small	cells keeping a cubic shape were abundantly observed	suppressed enhancement of VEGF expression in a concentration dependent manner	suppress enhancement of mRNA expression of VEGF	
CC(C(=O)O)c1ccc2c(c1)CC(=O)c1ccccc1S2 (stereo not drawn) [Zaltoprofen, zaltoprofen]	apparently suppressed	strongly positive staining was observed between cells	the signal strength of staining was small	cells keeping a cubic shape were abundantly observed	suppressed enhancement of VEGF expression in a concentration dependent manner		suppress enhancement of mRNA expression of VEGF
